Source: BindingDB's records for patent US10155727 (Janssen Pharmaceuticals, 2018)

Molecular target: Glutamate receptor ionotropic, NMDA 2B (Rattus norvegicus, UniProt P35439+Q00960)
Assay: Inhibition of Specific Binding to the Rat NR1/NR2B Receptor
Experimental: After thawing on the day of the assay, a 5 ml membrane aliquot was centrifuged at 48000 g for 30 min at 4° C. The pellet was resuspended in 5 ml of 5 mM Tris/1 mM EDTA buffer, pH 7.4, homogenized for 30 sec at 20000 rpm with an Ultraturrax and centrifuged at 48000 g for 30 min at 4° C. This was repeated twice. […] Nonspecific binding was estimated in the presence of […]. The samples were incubated for 60 min. at 4° C.The incubation was terminated by filtration of the membrane preparations using Filtermat B (Pharmacia, Uppsala Sweden) and a Micro Cell Harvester (Skatron, Lier, Norway). The Filtermat B had been presoaked with 1% polyethylene imine and carefully washed with 50 mM Tris/HCl-buffer pH 7.7 after the filtration to separate free and bound radioactivity. […] For pipetting of the incubation mixture the robot Biomek2000 (Fa. Beckman) was used.

Glutamate receptor ionotropic, NMDA 2B, sequence (Q00960 whole entry, one chain of several): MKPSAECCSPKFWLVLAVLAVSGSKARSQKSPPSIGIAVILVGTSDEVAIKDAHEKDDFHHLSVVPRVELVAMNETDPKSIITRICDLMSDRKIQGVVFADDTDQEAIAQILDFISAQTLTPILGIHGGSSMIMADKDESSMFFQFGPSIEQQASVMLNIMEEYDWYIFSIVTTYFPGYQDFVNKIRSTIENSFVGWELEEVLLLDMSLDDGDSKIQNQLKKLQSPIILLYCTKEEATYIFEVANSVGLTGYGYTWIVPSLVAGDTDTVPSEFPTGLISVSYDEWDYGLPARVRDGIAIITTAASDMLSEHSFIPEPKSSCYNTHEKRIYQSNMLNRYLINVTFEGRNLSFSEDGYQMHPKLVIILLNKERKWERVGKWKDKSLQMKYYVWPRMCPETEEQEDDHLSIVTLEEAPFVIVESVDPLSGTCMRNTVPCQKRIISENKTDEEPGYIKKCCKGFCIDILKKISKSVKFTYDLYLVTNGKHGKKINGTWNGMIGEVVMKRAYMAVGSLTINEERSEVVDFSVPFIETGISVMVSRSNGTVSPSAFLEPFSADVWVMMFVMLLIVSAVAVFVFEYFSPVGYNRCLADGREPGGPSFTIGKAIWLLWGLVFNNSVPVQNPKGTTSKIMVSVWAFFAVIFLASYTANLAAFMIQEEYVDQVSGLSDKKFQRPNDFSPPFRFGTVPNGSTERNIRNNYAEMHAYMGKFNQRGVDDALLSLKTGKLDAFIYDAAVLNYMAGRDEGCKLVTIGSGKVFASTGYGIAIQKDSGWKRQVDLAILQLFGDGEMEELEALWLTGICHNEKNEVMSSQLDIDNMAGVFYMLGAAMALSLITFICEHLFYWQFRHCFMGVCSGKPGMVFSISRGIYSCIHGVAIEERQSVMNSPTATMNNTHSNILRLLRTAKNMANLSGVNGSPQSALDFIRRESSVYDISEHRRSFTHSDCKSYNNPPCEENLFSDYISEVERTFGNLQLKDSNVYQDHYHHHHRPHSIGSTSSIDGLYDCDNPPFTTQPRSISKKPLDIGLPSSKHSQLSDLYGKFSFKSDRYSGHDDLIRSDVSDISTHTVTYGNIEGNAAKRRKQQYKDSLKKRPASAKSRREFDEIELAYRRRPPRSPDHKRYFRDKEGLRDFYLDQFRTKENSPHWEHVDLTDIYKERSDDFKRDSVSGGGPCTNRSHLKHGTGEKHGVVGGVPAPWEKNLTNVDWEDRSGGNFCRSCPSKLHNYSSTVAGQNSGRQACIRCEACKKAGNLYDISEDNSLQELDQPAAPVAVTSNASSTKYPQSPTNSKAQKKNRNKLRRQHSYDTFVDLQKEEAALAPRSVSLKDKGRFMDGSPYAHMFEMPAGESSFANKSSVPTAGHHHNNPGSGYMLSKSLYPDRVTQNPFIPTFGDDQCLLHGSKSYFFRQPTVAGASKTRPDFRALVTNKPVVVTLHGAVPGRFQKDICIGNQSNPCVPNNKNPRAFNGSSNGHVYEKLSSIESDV

Row | SMILES | IC50
1 | Cn1ccc(Cn2cc(-c3cccc(C(F)(F)F)c3)cn2)n1 [US10155727, Example 49] | 2.25 µM
2 | Cc1cc(Cn2cc(-c3ccc(C(F)(F)F)cc3)cn2)n(C)n1 [US10155727, Example 51] | 9.21 µM
